Measured values from PubChem BioAssay (NCI).
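The compound was tested at five concentrations on cells cultured in 96-well plates, with a 48-hour exposure period. Here, GI50 denotes the concentration required for 50% inhibition of growth. TGI denotes the concentration required for complete inhibition of growth.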

Key:
Assay in all cases: DTP human tumour cell line panel, 48 h
[1] = system: ACHN renal
[2] = system: HCC-2998 colon
[3] = system: HOP-62 NSCLC
[4] = system: OVCAR-5 ovarian
[5] = system: RXF 393 renal
[6] = system: SF-295 CNS
[7] = system: SK-MEL-5 melanoma
[8] = system: SK-OV-3 ovarian
[9] = system: SR leukemia
[10] = system: LOX IMVI melanoma

## O=C([CH-]C(=O)c1ccccc1)c1ccccc1.O=C([CH-]C(=O)c1ccccc1)c1ccccc1.[OH-].[OH-].[Ti+4]
[1]
  GI50: > 100 µM
  TGI: > 100 µM
[2]
  GI50: > 100000 nM
  TGI: > 100 µM
[3]
  GI50: 27.1 µM
  TGI: > 100 µM
[4]
  GI50: > 100 µM
  TGI: > 100 µM
[5]
  GI50: 6.85 µM
  TGI: 25.9 µM
[6]
  GI50: 30.4 µM
  TGI: > 100 µM
[7]
  GI50: 31200 nM
  TGI: > 100 µM
[8]
  GI50: 75.6 µM
  TGI: > 100 µM

## CCOC1=C2N=C(Cc3ccccc3F)N=C2C(=O)c2ccccc21
[1]
  TGI: > 100 µM
[2]
  TGI: > 100 µM
[3]
  TGI: > 100 µM
[5]
  TGI: > 100 µM
[6]
  TGI: > 100 µM
[9]
  TGI: > 100 µM

## CC(=O)c1c(C(F)(F)F)n([O-])c2ccc(C)cc2[n+]1=O
[1]
  GI50: 3.44 µM
  TGI: 20.4 µM
[2]
  GI50: 1890 nM
  TGI: 8.53 µM
[3]
  GI50: 3.64 µM
  TGI: 21.9 µM
[10]
  GI50: 3.29 µM
  TGI: > 44.2 µM
[4]
  GI50: 7 µM
  TGI: 40.3 µM
[5]
  GI50: 10.2 µM
  TGI: > 100 µM
[6]
  GI50: 5.71 µM
  TGI: > 44.2 µM
[7]
  GI50: 1070 nM
  TGI: 3 µM
[8]
  GI50: 5.02 µM
  TGI: > 100 µM

## COc1ccc(/C=N/NC(=O)Cn2c(-c3ccc(S(C)(=O)=O)cc3)nc3cc(Cl)ccc32)cc1
[1]
  GI50: 2.13 µM
  TGI: > 50 µM
[2]
  GI50: 1850 nM
  TGI: 12.5 µM
[3]
  GI50: 1.42 µM
  TGI: > 50 µM
[10]
  GI50: 1.4 µM
  TGI: > 50 µM
[4]
  GI50: 3.54 µM
  TGI: > 50 µM
[6]
  GI50: 1.47 µM
  TGI: > 50 µM
[7]
  GI50: 964 nM
  TGI: 8.55 µM
[8]
  GI50: 1.72 µM
  TGI: > 50 µM

## COCCOCOc1ccc(OCOCCOC)c2c1C(=O)c1ccccc1C2=O
[1]
  TGI: > 100 µM
[2]
  TGI: > 100 µM
[3]
  TGI: > 100 µM
[10]
  TGI: > 100 µM
[4]
  TGI: > 100 µM
[5]
  TGI: > 100 µM
[6]
  TGI: > 100 µM
[7]
  TGI: > 100 µM
[8]
  TGI: > 100 µM

## Cc1ccc(C2=Nc3ccccc3SC(c3cccc([N+](=O)[O-])c3)C2)cc1 (stereo not drawn)
[1]
  TGI: > 100 µM
[3]
  TGI: > 100 µM
[4]
  TGI: > 100 µM
[5]
  TGI: 72.2 µM
[6]
  TGI: > 100 µM
[7]
  TGI: > 100 µM
[8]
  TGI: > 100 µM

## N#Cc1ccc(N=Cc2c([O-])ccc3ccccc23)cc1.[C-]#[O+].[C-]#[O+].[Ir]
[1]
  GI50: 6.32 µM
  TGI: 18.7 µM
[2]
  GI50: 14700 nM
  TGI: 27.8 µM
[3]
  GI50: 20.6 µM
  TGI: 42 µM
[10]
  GI50: 9.88 µM
  TGI: 22.4 µM
[4]
  GI50: 21.7 µM
  TGI: 36.5 µM
[6]
  GI50: 16.9 µM
  TGI: 35.7 µM
[7]
  GI50: 13400 nM
  TGI: 26.2 µM
[8]
  GI50: 21.1 µM
  TGI: 39.1 µM
[9]
  GI50: 4.17 µM
  TGI: 20.6 µM

## CC1(C)C2CCC13CS(=O)(=O)N1O[C@]13C(=O)O2 (stereo partly drawn)
[1]
  TGI: > 100 µM
[2]
  TGI: > 100 µM
[3]
  TGI: > 100 µM
[10]
  TGI: > 100 µM
[4]
  TGI: > 100 µM
[6]
  TGI: > 100 µM
[9]
  TGI: > 100 µM

## CN(C)CCC(/C=C/c1ccccc1)=N\Nc1ccc(Cl)cc1Cl
[1]
  TGI: 25.5 µM
[3]
  TGI: 27.9 µM
[4]
  TGI: 28.8 µM
[5]
  TGI: 21 µM
[6]
  TGI: 30.2 µM
[7]
  TGI: 26.2 µM
[8]
  TGI: 22.8 µM
[9]
  TGI: 23.9 µM

## COc1cc(-c2cc(-c3cc([N+](=O)[O-])c(/C=N/NC(=O)c4ccncc4)o3)ccc2OC)ccc1C
[1]
  TGI: > 100 µM
[2]
  TGI: > 100 µM
[3]
  TGI: > 100 µM
[10]
  TGI: > 100 µM
[4]
  TGI: > 100 µM
[5]
  TGI: > 100 µM
[6]
  TGI: > 100 µM
[8]
  TGI: > 100 µM

## O=C(O)COc1c(Cl)cc(Cl)c2cccnc12
[1]
  TGI: > 100 µM
[3]
  TGI: > 100 µM
[10]
  TGI: > 100 µM
[4]
  TGI: > 100 µM
[5]
  TGI: > 100 µM
[6]
  TGI: > 100 µM
[7]
  TGI: > 100 µM
[8]
  TGI: > 100 µM
[9]
  TGI: > 100 µM

## Cc1cc2c(c(C(=O)O)c1C)-c1cccc(F)c1C2=O
[1]
  TGI: > 100 µM
[2]
  TGI: > 100 µM
[3]
  TGI: > 100 µM
[10]
  TGI: > 100 µM
[4]
  TGI: > 100 µM
[5]
  TGI: > 100 µM
[6]
  TGI: > 100 µM
[7]
  TGI: > 100 µM
[8]
  TGI: > 100 µM

## COc1ccc(C(Cl)=C(c2ccc(OCCN(C)C)cc2)c2ccc(OCCN(C)C)cc2)cc1
[1]
  TGI: 4.72 µM
[2]
  TGI: 7.35 µM
[3]
  TGI: 10.4 µM
[4]
  TGI: 3.3 µM
[5]
  TGI: 2.65 µM
[6]
  TGI: 3.24 µM
[7]
  TGI: 3.52 µM
[8]
  TGI: 7.69 µM
[9]
  TGI: 3.16 µM

## COc1ccc2c(c1OC)C(=O)OC2C1c2c(c([N+](=O)[O-])c3c(c2OC)OCO3)CCN1C (stereo not drawn)
[1]
  GI50: > 100 µM
  TGI: > 100 µM
[2]
  GI50: 27800 nM
  TGI: > 100 µM
[3]
  GI50: > 100 µM
  TGI: > 100 µM
[10]
  GI50: > 100 µM
  TGI: > 100 µM
[4]
  GI50: > 100 µM
  TGI: > 100 µM
[5]
  GI50: > 100 µM
  TGI: > 100 µM
[6]
  GI50: > 100 µM
  TGI: > 100 µM
[7]
  GI50: > 100000 nM
  TGI: > 100 µM
[8]
  GI50: > 100 µM
  TGI: > 100 µM

## CCOc1nc(N)nc(C)c1N=Nc1ccc(Cl)cc1
[1]
  TGI: > 100 µM
[3]
  TGI: > 100 µM
[10]
  TGI: > 100 µM
[4]
  TGI: > 100 µM
[5]
  TGI: > 100 µM
[6]
  TGI: 94.1 µM
[7]
  TGI: > 100 µM
[8]
  TGI: > 100 µM
[9]
  TGI: 23.9 µM

## CCCCCn1sc(=O)n(Cc2ccc(CNC(=O)OCc3ccc4cccc(O)c4n3)cc2)c1=O
[1]
  GI50: 1.23 µM
  TGI: 2.47 µM
[2]
  GI50: 2090 nM
  TGI: 4.52 µM
[3]
  GI50: 2.73 µM
  TGI: 14.9 µM
[10]
  GI50: 1.09 µM
  TGI: 2.33 µM
[4]
  GI50: 1.68 µM
  TGI: 3.09 µM
[5]
  GI50: 1.37 µM
  TGI: 2.67 µM
[6]
  GI50: 6.73 µM
  TGI: 20.1 µM
[7]
  GI50: 1690 nM
  TGI: 3.07 µM
[8]
  GI50: 4.58 µM
  TGI: 18.4 µM

## O=P1(Oc2ccccc2)C(c2ccccc2)C(c2ccccc2)=NN1c1ccccc1 (stereo not drawn)
[1]
  TGI: 77.6 µM
[2]
  TGI: 89.8 µM
[3]
  TGI: 71.3 µM
[10]
  TGI: 31.6 µM
[4]
  TGI: 50.2 µM
[5]
  TGI: 40.7 µM
[6]
  TGI: 89.5 µM
[8]
  TGI: 54.4 µM

## Cc1cc(N(CCC#N)CCC#N)ccc1/C=C1/N=C(c2ccccc2)N(N)C1=O
[1]
  TGI: > 100 µM
[2]
  TGI: > 100 µM
[3]
  TGI: > 100 µM
[10]
  TGI: > 100 µM
[4]
  TGI: > 100 µM
[6]
  TGI: > 100 µM
[7]
  TGI: > 100 µM
[8]
  TGI: > 100 µM

## COc1cc2nc(NCCCCCNC(=O)c3ccco3)nc(N)c2cc1OC
[1]
  TGI: > 100 µM
[2]
  TGI: 38.2 µM
[3]
  TGI: 61.3 µM
[4]
  TGI: > 100 µM
[5]
  TGI: 83.5 µM
[6]
  TGI: > 100 µM
[7]
  TGI: 34.4 µM
[8]
  TGI: > 100 µM

## CN1COc2c(n(C)c(=O)[nH]c2=O)C1
[1]
  TGI: > 100 µM
[2]
  TGI: > 100 µM
[3]
  TGI: > 100 µM
[4]
  TGI: > 100 µM
[5]
  TGI: 97.9 µM
[6]
  TGI: > 100 µM
[7]
  TGI: > 100 µM
[8]
  TGI: > 100 µM
[9]
  TGI: > 80.6 µM
